Laboratory results reported in ChEMBL document CHEMBL2440076, “New triarylpyrazoles as broad-spectrum anticancer agents: design, synthesis, and biological evaluation” (Eur J Med Chem, 2013).

Key:
Format in all cases: functional
T47D [1] = assay: Growth inhibition of human T47D cells assessed as cell growth at 3X10'-5 M after 48 hrs by sulforhodamine B assay; settings: read-out: Activity
HCT-15 = assay: Growth inhibition of human HCT15 cells assessed as cell growth at 3X10'-9 M after 48 hrs by sulforhodamine B assay; settings: HCT-15, 48 h, read-out: Activity
SF-268 = assay: Growth inhibition of human SF268 cells assessed as cell growth at 3X10'-8 M after 48 hrs by sulforhodamine B assay; settings: SF-268, 48 h, read-out: Activity
MDA-MB-435 = assay: Growth inhibition of human MDA-MB-435 cells assessed as cell growth at 3X10'-6 M after 48 hrs by sulforhodamine B assay; settings: MDA-MB-435, 48 h, read-out: Activity
HL-60(TB) = assay: Growth inhibition of human HL-60(TB) cells assessed as cell growth at 3X10'-5 M after 48 hrs by sulforhodamine B assay; settings: HL-60, 48 h, read-out: Activity
COLO 205 = assay: Growth inhibition of human COLO205 cells assessed as cell growth at 3X10'-8 M after 48 hrs by sulforhodamine B assay; settings: COLO 205, 48 h, read-out: Activity
SN12C = assay: Growth inhibition of human SN12C cells assessed as cell growth at 3X10'-9 M after 48 hrs by sulforhodamine B assay; settings: read-out: Activity
[2] = Growth inhibition of human Hs 578T cells assessed as cell growth at 3X10'-7 M after 48 hrs by sulforhodamine B assay; settings: read-out: Activity
T47D [3] = assay: Growth inhibition of human T47D cells assessed as cell growth at 3X10'-7 M after 48 hrs by sulforhodamine B assay; settings: read-out: Activity
SK-MEL-5 = assay: Growth inhibition of human SK-MEL-5 cells assessed as cell growth at 3X10'-7 M after 48 hrs by sulforhodamine B assay; settings: SK-MEL-5, 48 h, read-out: Activity
TK-10 [4] = assay: Growth inhibition of human TK10 cells assessed as cell growth at 3X10'-7 M after 48 hrs by sulforhodamine B assay; settings: TK-10, 48 h, read-out: Activity
T47D [5] = assay: Growth inhibition of human T47D cells assessed as cell growth at 3X10'-6 M after 48 hrs by sulforhodamine B assay; settings: read-out: Activity
NCI-H226 = assay: Growth inhibition of human NCI-H226 cells assessed as cell growth at 3X10'-7 M after 48 hrs by sulforhodamine B assay; settings: NCI-H226, 48 h, read-out: Activity
TK-10 [6] = assay: Growth inhibition of human TK10 cells assessed as cell growth at 3X10'-9 M after 48 hrs by sulforhodamine B assay; settings: TK-10, 48 h, read-out: Activity
SK-MEL-2 = assay: Growth inhibition of human SK-MEL-2 cells assessed as cell growth at 3X10'-5 M after 48 hrs by sulforhodamine B assay; settings: SK-MEL-2, 48 h, read-out: Activity
NCI-H522 = assay: Growth inhibition of human NCI-H522 cells assessed as cell growth at 3X10'-8 M after 48 hrs by sulforhodamine B assay; settings: NCI-H522, 48 h, read-out: Activity
DU-145 = assay: Growth inhibition of human DU145 cells assessed as cell growth at 3X10'-7 M after 48 hrs by sulforhodamine B assay; settings: DU-145, 48 h, read-out: Activity
SNB-75 = assay: Growth inhibition of human SNB75 cells assessed as cell growth at 3X10'-9 M after 48 hrs by sulforhodamine B assay; settings: SNB-75, 48 h, read-out: Activity
OVCAR-4 = assay: Growth inhibition of human OVCAR4 cells assessed as cell growth at 3X10'-8 M after 48 hrs by sulforhodamine B assay; settings: OVCAR-4, 48 h, read-out: Activity
UO-31 = assay: Growth inhibition of human UO31 cells assessed as cell growth at 3X10'-7 M after 48 hrs by sulforhodamine B assay; settings: UO-31, 48 h, read-out: Activity
RPMI-8226 = assay: Growth inhibition of human RPMI8226 cells assessed as cell growth at 3X10'-5 M after 48 hrs by sulforhodamine B assay; settings: RPMI-8226, 48 h, read-out: Activity
Malme-3M [7] = assay: Growth inhibition of human MALME-3M cells assessed as cell growth at 3X10'-8 M after 48 hrs by sulforhodamine B assay; settings: read-out: Activity
MCF7 = assay: Growth inhibition of human MCF7 cells assessed as cell growth at 3X10'-8 M after 48 hrs by sulforhodamine B assay; settings: MCF7, 48 h, read-out: Activity
OVCAR-8 [8] = assay: Growth inhibition of human OVCAR8 cells assessed as cell growth at 3X10'-5 M after 48 hrs by sulforhodamine B assay; settings: OVCAR-8, 48 h, read-out: Activity
Malme-3M [9] = assay: Growth inhibition of human MALME-3M cells assessed as cell growth at 3X10'-7 M after 48 hrs by sulforhodamine B assay; settings: read-out: Activity
ACHN = assay: Growth inhibition of human ACHN cells assessed as cell growth at 3X10'-8 M after 48 hrs by sulforhodamine B assay; settings: read-out: Activity
OVCAR-8 [10] = assay: Growth inhibition of human OVCAR8 cells assessed as cell growth at 3X10'-7 M after 48 hrs by sulforhodamine B assay; settings: OVCAR-8, 48 h, read-out: Activity
SK-MEL-28 = assay: Growth inhibition of human SK-MEL-28 cells assessed as cell growth at 3X10'-9 M after 48 hrs by sulforhodamine B assay; settings: SK-MEL-28, 48 h, read-out: Activity
[11] = Growth inhibition of human Hs 578T cells assessed as cell growth at 3X10'-6 M after 48 hrs by sulforhodamine B assay; settings: read-out: Activity
UACC-257 = assay: Growth inhibition of human UACC257 cells assessed as cell growth at 3X10'-6 M after 48 hrs by sulforhodamine B assay; settings: UACC-257, 48 h, read-out: Activity
KM12 = assay: Growth inhibition of human KM12 cells assessed as cell growth at 3X10'-8 M after 48 hrs by sulforhodamine B assay; settings: KM12, 48 h, read-out: Activity
OVCAR-3 [12] = assay: Growth inhibition of human OVCAR3 cells assessed as cell growth at 3X10'-6 M after 48 hrs by sulforhodamine B assay; settings: OVCAR-3, 48 h, read-out: Activity
OVCAR-3 [13] = assay: Growth inhibition of human OVCAR3 cells assessed as cell growth at 3X10'-7 M after 48 hrs by sulforhodamine B assay; settings: OVCAR-3, 48 h, read-out: Activity
SF-295 = assay: Growth inhibition of human SF295 cells assessed as cell growth at 3X10'-6 M after 48 hrs by sulforhodamine B assay; settings: SF-295, 48 h, read-out: Activity
NCI-H23 = assay: Growth inhibition of human NCI-H23 cells assessed as cell growth at 3X10'-8 M after 48 hrs by sulforhodamine B assay; settings: NCI-H23, 48 h, read-out: Activity
NCI-H460 = assay: Growth inhibition of human NCI-H460 cells assessed as cell growth at 3X10'-6 M after 48 hrs by sulforhodamine B assay; settings: NCI-H460, 48 h, read-out: Activity

| SMILES | growth at 30 µM (T47D [1]) | growth at 0.003 µM (HCT-15) | growth at 0.03 µM (SF-268) | growth at 3 µM (MDA-MB-435) | growth at 30 µM (HL-60(TB)) | growth at 0.03 µM (COLO 205) | growth at 0.003 µM (SN12C) | growth at 0.3 µM [2] | growth at 0.3 µM (T47D [3]) | growth at 0.3 µM (SK-MEL-5) | growth at 0.3 µM (TK-10 [4]) | growth at 3 µM (T47D [5]) | growth at 0.3 µM (NCI-H226) | growth at 0.003 µM (TK-10 [6]) | growth at 30 µM (SK-MEL-2) | growth at 0.03 µM (NCI-H522) | growth at 0.3 µM (DU-145) | growth at 0.003 µM (SNB-75) | growth at 0.03 µM (OVCAR-4) | growth at 0.3 µM (UO-31) | also measured |
| --- | --- | --- | --- | --- | --- | --- | --- | --- | --- | --- | --- | --- | --- | --- | --- | --- | --- | --- | --- | --- | --- |
| O=C(Nc1cccc(-n2cc(-c3ccncc3)c(-c3ccc(Cl)c(O)c3)n2)c1)Nc1cccc(C(F)(F)F)c1 | 7% | 95% | 94% | 26% | 1% | 99% | 98% | 89% | 97% | 99% | 107% | 44% | 98% | 94% | -32% | 90% | 97% | 91% | 107% | 90% | growth at 30 µM (RPMI-8226): 5%; growth at 0.03 µM (Malme-3M [7]): 82%; growth at 0.03 µM (MCF7): 96%; growth at 30 µM (OVCAR-8 [8]): 7%; growth at 0.3 µM (Malme-3M [9]): 87%; growth at 0.03 µM (ACHN): 101%; growth at 0.3 µM (OVCAR-8 [10]): 91%; growth at 0.003 µM (SK-MEL-28): 103%; growth at 3 µM [11]: 50%; growth at 3 µM (UACC-257): 60%; growth at 0.03 µM (KM12): 95%; growth at 3 µM (OVCAR-3 [12]): 10%; growth at 0.3 µM (OVCAR-3 [13]): 92%; growth at 3 µM (SF-295): 7%; growth at 0.03 µM (NCI-H23): 94%; growth at 3 µM (NCI-H460): 16% |
| O=C(Nc1cccc(-n2cc(-c3ccncc3)c(-c3ccc(Cl)c(O)c3)n2)c1)Nc1ccc(Cl)c(Cl)c1 | -9% | 102% | 92% | 14% | 1% | 97% | 93% | 82% | 100% | 90% | 112% | 26% | 94% | 96% | -50% | 94% | 105% | 88% | 102% | 93% | growth at 30 µM (RPMI-8226): 3%; growth at 0.03 µM (Malme-3M [7]): 89%; growth at 0.03 µM (MCF7): 93%; growth at 30 µM (OVCAR-8 [8]): 7%; growth at 0.3 µM (Malme-3M [9]): 102%; growth at 0.03 µM (ACHN): 103%; growth at 0.3 µM (OVCAR-8 [10]): 95%; growth at 0.003 µM (SK-MEL-28): 102%; growth at 3 µM [11]: -1%; growth at 3 µM (UACC-257): -1%; growth at 0.03 µM (KM12): 92%; growth at 3 µM (OVCAR-3 [12]): -1%; growth at 0.3 µM (OVCAR-3 [13]): 103%; growth at 0.03 µM (NCI-H23): 93%; growth at 3 µM (NCI-H460): 2% |
| COc1cc(-c2nn(-c3cccc(NC(=O)c4ccc(Cl)c(C(F)(F)F)c4)c3)cc2-c2ccncc2)ccc1Cl | 18% | 99% | 94% | -32% | 23% | 97% | 98% | 82% | 92% | 93% | 108% | 40% | 84% | 90% | -10% | 94% | 98% | 86% | 103% | 47% | growth at 30 µM (RPMI-8226): 5%; growth at 0.03 µM (Malme-3M [7]): 78%; growth at 0.03 µM (MCF7): 93%; growth at 30 µM (OVCAR-8 [8]): 15%; growth at 0.3 µM (Malme-3M [9]): 88%; growth at 0.03 µM (ACHN): 100%; growth at 0.3 µM (OVCAR-8 [10]): 93%; growth at 0.003 µM (SK-MEL-28): 99%; growth at 3 µM [11]: 43%; growth at 3 µM (UACC-257): 60%; growth at 0.03 µM (KM12): 96%; growth at 3 µM (OVCAR-3 [12]): 43%; growth at 0.3 µM (OVCAR-3 [13]): 98%; growth at 3 µM (SF-295): 27%; growth at 0.03 µM (NCI-H23): 92%; growth at 3 µM (NCI-H460): 51% |
